What was measured:
GRK2(h) = biological target: T1, GRK2(h) (Homo sapiens, UniProt P25098); test: Eurofins kinase panel; format: biochemical; conditions: read-out: Inhibition rate (%)
T1 construct: purchased Eurofins (KinaseProfiler)
T1 sequence (P25098 1-689): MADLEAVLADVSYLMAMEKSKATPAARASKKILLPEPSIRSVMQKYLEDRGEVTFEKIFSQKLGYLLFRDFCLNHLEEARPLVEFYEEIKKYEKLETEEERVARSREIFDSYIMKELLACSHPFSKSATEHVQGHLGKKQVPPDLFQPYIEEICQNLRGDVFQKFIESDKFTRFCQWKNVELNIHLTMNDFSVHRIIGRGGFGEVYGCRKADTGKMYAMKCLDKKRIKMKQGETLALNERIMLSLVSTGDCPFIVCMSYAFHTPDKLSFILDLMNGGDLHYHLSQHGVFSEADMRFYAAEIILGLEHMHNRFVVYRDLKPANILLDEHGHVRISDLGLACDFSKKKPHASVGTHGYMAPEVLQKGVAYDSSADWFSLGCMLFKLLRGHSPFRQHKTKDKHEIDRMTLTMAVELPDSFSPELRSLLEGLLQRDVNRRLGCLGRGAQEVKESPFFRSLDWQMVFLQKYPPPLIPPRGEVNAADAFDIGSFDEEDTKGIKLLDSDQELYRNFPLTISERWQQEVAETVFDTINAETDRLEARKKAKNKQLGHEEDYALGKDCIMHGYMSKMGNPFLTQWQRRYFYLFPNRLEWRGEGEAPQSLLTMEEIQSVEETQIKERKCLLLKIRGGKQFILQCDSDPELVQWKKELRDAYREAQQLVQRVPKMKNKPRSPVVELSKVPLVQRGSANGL

MDA-MB-453 = test: Cell proliferation assay; format: cell-based; conditions: Homo sapiens, Fig. 2G
Method: (§1) The cancer cell lines indicated in Figure 3 were seeded in 96-well plates at a low density in growth medium. The next day, appropriate controls or the designated concentrations of the compounds were added to each well, and the cells were incubated for 72 h. HUVECs (passage 3) were seeded in 96-well plates in growth medium overnight and transferred to serum-free medium for 24 h. The following day, appropriate controls or the designated concentrations of the compounds were added to each well, and 100 ng/mL growth factor (bFGF or VEGF) was added to the indicated wells. The cells were incubated for 48 h. Finally, cell proliferation was determined using a sulforhodamine B (SRB) assay or a cell counting kit-8 (CCK-8) assay. […] IC50 values for proliferation curves were calculated using a 4-parameter logistic nonlinear regression model with SoftMax Pro Software (Molecular Devices, San Jose, USA).

MCF-7 = test: Cell proliferation assay; format: cell-based; conditions: Homo sapiens, MCF7; Fig. 2G
Method: as §1

NCI-H2444 = test: Cell proliferation assay; format: cell-based; conditions: Homo sapiens, Fig. 2G
Method: as §1

NCI-H460 = test: Cell proliferation assay; format: cell-based; conditions: Homo sapiens, Fig. 2G
Method: as §1

MKN28 = test: Cell proliferation assay; format: cell-based; conditions: Homo sapiens, MKN-28; Fig. 2G
Method: as §1

T47D = test: Cell proliferation assay; format: cell-based; conditions: Homo sapiens, Fig. 2G
Method: as §1

[1] = system: 372 human recombinant kinases; test: Eurofins kinase panel, overall selectivity; format: biochemical
Method: Active FGFR1–4, VEGFR1, KDR, VEGFR3, PDGFRα and PDGFRβ proteins were purchased from Eurofins (Fremont, United States), and kinase activity was assessed using ELISA, as previously reported. The broader kinase selectivity profile of 3D185 (0.01, 0.1, and 1 μM) was determined by Eurofins by screening the compound against 372 human recombinant kinases. Increasing concentrations of ATP were diluted for the kinase reaction in the ATP competition assay. CSF-1R kinase activity was analyzed using the Z’-LYTE™ Kinase Assay Kit (Thermo Fisher, United States). The assay formats are described in the SelectScreen Kinase Profiling Service Zlyte protocol. IC50 values were calculated by dose-response curve fitting using Prism (Graph Pad).

EphA2(h) = biological target: T2, EphA2(h) (Homo sapiens, UniProt P29317); test: Eurofins kinase panel; format: biochemical; conditions: read-out: Inhibition rate (%)
T2 construct: purchased Eurofins (KinaseProfiler)

BMDM (CSF-2) = test: Macrophage survival (CCK-8); format: cell-based, murine; conditions: Mus musculus, BMDM, 168 h; 7 days
Method: Murine bone marrow-derived macrophages (BMDMs) and PBMCs were used for cell viability studies. BMDMs were harvested by flushing the tibias and femurs of 6- to 8-week-old C57BL/6 mice and depleting red blood cells (RBCs) by RBC lysis (Biogems). For BMDM survival, the cells were cultured for 7 days in RPMI 1640 containing 10% fetal bovine serum (FBS), 100 U/mL penicillin, 100 μg/mL streptomycin and 100 ng/mL mouse CSF-1 (or CSF-2) with or without the tested compounds. PBMCs were obtained from HemaCare and cultured for 7 days in RPMI 1640 containing 10% fetal bovine serum (FBS), 100 U/mL penicillin, 100 μg/mL streptomycin and 100 ng/mL human CSF-1 (or CSF-2) with or without the tested compounds. Cell viability was measured using the CCK-8 assay. For IL-4/IL-13-induced macrophage survival analysis, viable cells were counted by trypan blue exclusion.

CDK7/cyclinH/MAT1(h) = biological target: T3, CDK7/cyclinH/MAT1(h) (Homo sapiens, UniProt P50613); test: Eurofins kinase panel; format: biochemical; conditions: read-out: Inhibition rate (%)
T3 construct: purchased Eurofins (KinaseProfiler)

JNK3(h) = biological target: T4, JNK3(h) (Homo sapiens, UniProt P53779); test: Eurofins kinase panel; format: biochemical; conditions: read-out: Inhibition rate (%)
T4 construct: purchased Eurofins (KinaseProfiler)

Mnk2(h) = biological target: T5, Mnk2(h) (Homo sapiens, UniProt Q9HBH9); test: Eurofins kinase panel; format: biochemical; conditions: read-out: Inhibition rate (%)
T5 construct: purchased Eurofins (KinaseProfiler)

MST3(h) = biological target: T6, MST3(h) (Homo sapiens, UniProt Q9Y6E0); test: Eurofins kinase panel; format: biochemical; conditions: read-out: Inhibition rate (%)
T6 construct: purchased Eurofins (KinaseProfiler)
T6 sequence (Q9Y6E0 whole entry): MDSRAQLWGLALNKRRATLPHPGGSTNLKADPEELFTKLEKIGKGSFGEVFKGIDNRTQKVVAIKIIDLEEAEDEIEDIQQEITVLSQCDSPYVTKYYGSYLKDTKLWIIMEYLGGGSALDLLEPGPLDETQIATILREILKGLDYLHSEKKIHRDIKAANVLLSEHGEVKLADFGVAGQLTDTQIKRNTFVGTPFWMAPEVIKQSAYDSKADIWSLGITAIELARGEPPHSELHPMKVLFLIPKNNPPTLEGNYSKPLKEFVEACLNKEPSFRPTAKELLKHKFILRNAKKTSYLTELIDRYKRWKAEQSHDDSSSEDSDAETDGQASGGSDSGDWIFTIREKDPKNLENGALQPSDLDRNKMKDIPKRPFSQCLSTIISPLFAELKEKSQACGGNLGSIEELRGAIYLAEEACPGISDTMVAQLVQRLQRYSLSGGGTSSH

T4 sequence (P53779 whole entry): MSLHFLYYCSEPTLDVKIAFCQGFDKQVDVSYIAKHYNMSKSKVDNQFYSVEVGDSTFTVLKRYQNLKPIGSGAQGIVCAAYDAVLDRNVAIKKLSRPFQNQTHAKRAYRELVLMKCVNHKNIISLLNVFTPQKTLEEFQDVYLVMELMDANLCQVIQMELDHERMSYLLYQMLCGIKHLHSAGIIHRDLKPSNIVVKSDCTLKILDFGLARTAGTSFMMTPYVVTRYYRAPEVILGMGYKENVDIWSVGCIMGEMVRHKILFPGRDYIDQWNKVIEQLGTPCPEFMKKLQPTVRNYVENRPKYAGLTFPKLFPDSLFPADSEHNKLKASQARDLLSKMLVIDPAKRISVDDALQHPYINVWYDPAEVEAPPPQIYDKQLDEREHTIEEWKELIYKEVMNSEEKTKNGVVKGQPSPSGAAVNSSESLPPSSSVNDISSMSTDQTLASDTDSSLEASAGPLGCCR
T3 sequence (P50613 whole entry): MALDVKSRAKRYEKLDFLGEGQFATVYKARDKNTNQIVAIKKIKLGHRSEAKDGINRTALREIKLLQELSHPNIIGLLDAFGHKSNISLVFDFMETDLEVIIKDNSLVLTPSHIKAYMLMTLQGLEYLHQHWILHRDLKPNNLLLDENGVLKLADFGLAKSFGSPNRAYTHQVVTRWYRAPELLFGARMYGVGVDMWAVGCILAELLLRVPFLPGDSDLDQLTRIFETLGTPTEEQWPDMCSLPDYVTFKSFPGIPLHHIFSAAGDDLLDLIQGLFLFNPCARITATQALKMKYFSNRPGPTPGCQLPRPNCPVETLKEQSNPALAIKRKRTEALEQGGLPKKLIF
T3 sequence (P51946 whole entry partner): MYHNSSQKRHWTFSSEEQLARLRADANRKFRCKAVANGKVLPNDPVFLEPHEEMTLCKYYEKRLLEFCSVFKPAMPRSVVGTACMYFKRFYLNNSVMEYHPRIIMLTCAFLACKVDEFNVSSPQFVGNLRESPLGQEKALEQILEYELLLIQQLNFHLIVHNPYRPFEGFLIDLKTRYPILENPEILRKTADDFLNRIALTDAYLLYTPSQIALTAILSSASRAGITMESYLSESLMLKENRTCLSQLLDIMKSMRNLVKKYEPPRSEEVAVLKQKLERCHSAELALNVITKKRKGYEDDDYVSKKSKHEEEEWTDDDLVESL
T3 sequence (P51948 whole entry partner): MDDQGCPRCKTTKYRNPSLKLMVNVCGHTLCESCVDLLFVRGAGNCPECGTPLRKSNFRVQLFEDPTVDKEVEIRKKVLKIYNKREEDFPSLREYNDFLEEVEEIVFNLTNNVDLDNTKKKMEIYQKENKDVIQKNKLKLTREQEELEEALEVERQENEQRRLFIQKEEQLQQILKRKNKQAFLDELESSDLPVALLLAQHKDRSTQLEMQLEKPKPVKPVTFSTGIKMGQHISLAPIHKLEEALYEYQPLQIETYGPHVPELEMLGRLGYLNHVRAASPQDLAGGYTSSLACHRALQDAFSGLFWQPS
T5 sequence (Q9HBH9 whole entry): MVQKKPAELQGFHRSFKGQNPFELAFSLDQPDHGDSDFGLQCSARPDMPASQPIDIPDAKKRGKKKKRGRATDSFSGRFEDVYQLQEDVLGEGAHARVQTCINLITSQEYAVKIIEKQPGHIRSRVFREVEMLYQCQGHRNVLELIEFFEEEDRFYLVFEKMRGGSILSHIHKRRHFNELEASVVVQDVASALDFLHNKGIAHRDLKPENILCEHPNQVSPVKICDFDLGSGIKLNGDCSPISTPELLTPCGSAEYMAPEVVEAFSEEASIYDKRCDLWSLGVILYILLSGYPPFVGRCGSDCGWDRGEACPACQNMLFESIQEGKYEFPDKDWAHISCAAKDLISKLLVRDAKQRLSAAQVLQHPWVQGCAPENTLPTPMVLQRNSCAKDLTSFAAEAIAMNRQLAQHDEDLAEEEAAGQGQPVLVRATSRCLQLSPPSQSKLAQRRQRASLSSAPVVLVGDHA
T2 sequence (P29317 24-976): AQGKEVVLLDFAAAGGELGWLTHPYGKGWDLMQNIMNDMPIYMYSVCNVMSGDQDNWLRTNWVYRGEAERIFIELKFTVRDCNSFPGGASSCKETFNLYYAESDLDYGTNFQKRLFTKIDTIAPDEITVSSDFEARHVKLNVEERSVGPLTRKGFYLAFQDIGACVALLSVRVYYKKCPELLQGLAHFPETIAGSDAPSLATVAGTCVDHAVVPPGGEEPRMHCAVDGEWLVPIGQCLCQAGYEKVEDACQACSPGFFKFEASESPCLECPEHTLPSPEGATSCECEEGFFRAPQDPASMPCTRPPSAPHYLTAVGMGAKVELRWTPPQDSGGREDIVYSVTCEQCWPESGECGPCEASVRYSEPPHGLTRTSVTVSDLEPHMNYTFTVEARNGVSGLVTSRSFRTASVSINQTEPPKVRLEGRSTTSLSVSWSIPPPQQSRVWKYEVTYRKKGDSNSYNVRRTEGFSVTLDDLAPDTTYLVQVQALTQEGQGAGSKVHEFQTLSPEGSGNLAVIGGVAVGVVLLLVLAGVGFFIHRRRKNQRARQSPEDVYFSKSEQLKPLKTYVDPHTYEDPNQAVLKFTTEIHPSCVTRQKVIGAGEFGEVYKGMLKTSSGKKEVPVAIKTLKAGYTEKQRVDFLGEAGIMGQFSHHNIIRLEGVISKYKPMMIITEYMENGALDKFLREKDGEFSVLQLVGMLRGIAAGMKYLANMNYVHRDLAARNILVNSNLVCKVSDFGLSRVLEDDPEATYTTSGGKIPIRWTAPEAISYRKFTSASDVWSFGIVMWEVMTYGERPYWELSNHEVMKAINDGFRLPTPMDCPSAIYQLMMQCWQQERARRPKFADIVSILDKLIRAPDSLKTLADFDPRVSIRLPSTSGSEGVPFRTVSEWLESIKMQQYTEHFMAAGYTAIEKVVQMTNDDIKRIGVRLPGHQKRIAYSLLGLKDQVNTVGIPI

Question: For COc1cc(OC)c(Cl)c(-c2ccc3c(NC(=O)c4ccc(N5CCNC(C)(C)C5)cc4)n[nH]c3n2)c1Cl [3D185], which inhibition at 0.01 µM (GRK2(h); 10 nM) is on record?
Answer: 5%

Question: What about the inhibition at 0.1 µM (GRK2(h); 100 nM) of the same compound?
Answer: 1%

Question: What about the inhibition at 1 µM (GRK2(h); 1000 nM) of the same compound?
Answer: -4%

Question: And the IC50 (MDA-MB-453)?
Answer: > 1000 nM

Question: What about the IC50 (MCF-7) of the same compound?
Answer: > 1000 nM

Question: What about the IC50 (NCI-H2444) of the same compound?
Answer: > 1000 nM

Question: What about the IC50 (NCI-H460) of the same compound?
Answer: > 1000 nM

Question: What about the IC50 (MKN28) of the same compound?
Answer: > 1000 nM

Question: And the IC50 (T47D)?
Answer: > 1000 nM

Question: What about the “selectivity for FGFR1 over other kinases” value ([1]; 17 kinases) of the same compound?
Answer: > 20 fold

Question: What about the “selectivity for FGFR1 over other kinases” value ([1]; 349 kinases) of the same compound?
Answer: greater than 200 fold

Question: And the inhibition at 0.01 µM (EphA2(h); 10 nM)?
Answer: 13%

Question: And the inhibition at 0.1 µM (EphA2(h); 100 nM)?
Answer: 24%

Question: What about the inhibition at 1 µM (EphA2(h); 1000 nM) of the same compound?
Answer: 73%

Question: What about the IC50 (BMDM (CSF-2)) of the same compound?
Answer: > 1000 nM

Question: What about the inhibition at 0.01 µM (CDK7/cyclinH/MAT1(h); 10 nM) of the same compound?
Answer: 12%

Question: What about the inhibition at 0.1 µM (CDK7/cyclinH/MAT1(h); 100 nM) of the same compound?
Answer: 11%

Question: What about the inhibition at 1 µM (CDK7/cyclinH/MAT1(h); 1000 nM) of the same compound?
Answer: 11%

Question: What about the inhibition at 0.01 µM (JNK3(h); 10 nM) of the same compound?
Answer: -17%

Question: And the inhibition at 0.1 µM (JNK3(h); 100 nM)?
Answer: -22%

Question: And the inhibition at 1 µM (JNK3(h); 1000 nM)?
Answer: -36%

Question: What about the inhibition at 0.01 µM (Mnk2(h); 10 nM) of the same compound?
Answer: -2%

Question: What about the inhibition at 0.1 µM (Mnk2(h); 100 nM) of the same compound?
Answer: -10%

Question: And the inhibition at 1 µM (Mnk2(h); 1000 nM)?
Answer: -9%

Question: And the inhibition at 0.01 µM (MST3(h); 10 nM)?
Answer: -2%

Question: What about the inhibition at 0.1 µM (MST3(h); 100 nM) of the same compound?
Answer: 8%

Question: And the inhibition at 1 µM (MST3(h); 1000 nM)?
Answer: 70%

Reference: PMC6704710, “Preclinical evaluation of 3D185, a novel potent inhibitor of FGFR1/2/3 and CSF-1R, in FGFR-dependent and macrophage-dominant cancer models” (Journal of Experimental & Clinical Cancer Research : CR, 2019)
